In one experiment the test system is Chimera N3A. Description: [3H]-adenosine uptake in transfected L. donovani cells. Particulars: labelled compound. In kind it is cell-based, Crithidia fasciculata.
Another experiment relates to Chimera N1A. The description is as above. In kind it is cell-based, Crithidia fasciculata. Particulars: labelled compound.

The text below walks through data of article PMC3851587 (Molecular and biochemical parasitology, 2013).

For orientation: Km means the substrate concentration at which the rate is half of its maximum.

`Nc1ncnc2c1ncn2[C@@H]1O[C@H](CO)[C@@H](O)[C@H]1O` [adenosine]: the Michaelis-Menten constant (Km) came to 1.2 ± 0.16 µM in the experiment on Chimera N3A and 0.5 ± 0.14 µM with Chimera N1A.
